Data on 16 compounds can be found in US12145947B2, “Pyrimidine based modulators and uses thereof” (Quanta Therapeutics, Inc., priority 2022, dated 2024).

Some results are limits rather than exact numbers.

Assay [1] addresses T1, GST-tagged KRAS-G12D (2-169) (Homo sapiens, UniProt P01116, G12D).
T1 construct: GST-tagged KRAS-G12D (2-169, Reaction Biology, MSC-11-539); purchased Reaction Biology MSC-11-539 (KRAS G12D); MSC-11-502 (SOS1cat)
In words: Nucleotide exchange assay (NEA), SOS-mediated, HTRF, KRAS G12D. Format: biochemical. The conditions noted are these: Table 4; IC50 extracted at 30 min. Put shortly:
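GST-KRAS-G12D (2-169, 5 nM final) with Tb-anti-GST donor was preincubated with compound 1 h at RT (pH 7.3 HEPES buffer, MgCl2, DTT), then SOScat (564-1049, 20 nM) and GTP-DY-647P1 (150 nM) were added. HTRF was read at RT; % inhibition vs DMSO/no-SOS blank, 4-parameter IC50 taken at 30 min.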
(In general: TR-FRET usually uses a lanthanide donor and a delayed reading to cut background.)

The subject of assay [2] is GP2D cells (KRAS G12D), phospho-ERK. Put plainly: pERK In Cell Western (ICW) assay, GP2D cells. It is filed as cell-based. The conditions noted are these: Table 4, 3 hours. Summed up:
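GP2D (10,000 cells/well) and AGS (5,000 cells/well) cells were treated for 3 h at 37 °C with a 10-point, ½-log dilution series (top […]). They were then fixed and immunostained for phospho-ERK. pERK signal was normalised to DRAQ5 and expressed as % of DMSO, with IC50 from a 4-parameter fit.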

T1 sequence (P01116 2-169 isoform P01116-2 G12D): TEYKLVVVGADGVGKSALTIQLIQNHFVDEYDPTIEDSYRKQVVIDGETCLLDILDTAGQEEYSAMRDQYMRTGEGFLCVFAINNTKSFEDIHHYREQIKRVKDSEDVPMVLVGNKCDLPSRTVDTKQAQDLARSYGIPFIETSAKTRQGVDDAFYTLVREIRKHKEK

The IC50 is the concentration needed to halve the response being measured. A lower IC50 goes with inhibition by little substance. Consider `N#Cc1c(N2C[C@H]3CC[C@@H](C2)N3)nc(OCc2ccn[nH]2)nc1N1CC2(CCc3sc(N)c(C#N)c32)C1` [Compound 79, 2-amino-1′-[5-cyano-6-[(1R,5S)-3,8-diazabicyclo[3.2.1]octan-3-yl]-2-(1H-pyrazol-5-ylmethoxy)pyrimidin-4-yl]spiro[5,6-dihydrocyclopenta[b]thiophene-4,3′-azetidine]-3-carbonitrile], for which the 50% inhibitory concentration (IC50) in assay [1] is < 10 nM; in assay [2] it was 10 to 100 nM.
For `CN1CCN(CC2(COc3nc(N4C[C@H]5CC[C@@H](C4)N5)c(C#N)c(N4CC5(CCc6sc(N)c(C#N)c65)C4)n3)CC2)CC1=O` [Compound 80, 2-amino-1′-[5-cyano-2-[[1-[(4-methyl-3-oxo-piperazin-1-yl)methyl]cyclopropyl]methoxy]-6-[(1R,5S)-3,8-diazabicyclo[3.2.1]octan-3-yl]pyrimidin-4-yl]spiro[5,6-dihydrocyclopenta[b]thiophene-4,3′-azetidine]-3-carbonitrile], in that order: < 10 nM and 1 to 10 nM.
The like results for `CO[C@H]1CN(CC2(COc3nc(N4C[C@H]5CC[C@@H](C4)N5)c(C#N)c(N4CC5(CCc6sc(N)c(C#N)c65)C4)n3)CC2)C[C@@H]1F` [Compound 81, 2-amino-1′-[5-cyano-6-[(1R,5S)-3,8-diazabicyclo[3.2.1]octan-3-yl]-2-[[1-[[(3S,4S)-3-fluoro-4-methoxy-pyrrolidin-1-yl]methyl]cyclopropyl]methoxy]pyrimidin-4-yl]spiro[5,6-dihydrocyclopenta[b]thiophene-4,3′-azetidine]-3-carbonitrile] were, in that order, < 10 nM and 10 to 100 nM.
Turning to `Cc1nc(-c2nn3c(c2Cl)CN(c2nc(OC[C@@]45CCCN4C[C@H](F)C5)nc(N4CC5(CCc6sc(N)c(C#N)c65)C4)c2C#N)CCC3)n(C)n1` [Compound 85, 2-amino-1′-[6-[3-chloro-2-(2,5-dimethyl-1,2,4-triazol-3-yl)-4,6,7,8-tetrahydropyrazolo[1,5-a][1,4]diazepin-5-yl]-5-cyano-2-[[(2R,8S)-2-fluoro-1,2,3,5,6,7-hexahydropyrrolizin-8-yl]methoxy]pyrimidin-4-yl]spiro[5,6-dihydrocyclopenta[b]thiophene-4,3′-azetidine]-3-carbonitrile], the results for the IC50 in assay [1] and in assay [2] were < 10 nM and 10 to 100 nM, respectively.
For `N#Cc1c(N2C[C@H]3CC[C@@H](C2)N3)nc(OCC2(CN3CCOCC3)CC2)nc1N1CC2(C=CCc3sc(N)c(C#N)c32)C1` [Compound 86, 2-amino-1′-[5-cyano-2-[[1-(morpholinomethyl)cyclopropyl]methoxy]-6-[(1R,5S)-3,8-diazabicyclo[3.2.1]octan-3-yl]pyrimidin-4-yl]spiro[7H-benzothiophene-4,3′-azetidine]-3-carbonitrile], in that order: < 10 nM and 1 to 10 nM.
For `CN(C)CC1(COc2nc(N3CCCn4nc(C(=O)N(C)C)c(Cl)c4C3)c(C#N)c(N3CC4(CCc5sc(N)c(C#N)c54)C3)n2)CC1(F)F` (centres unmarked) [Compound 87, 5-[6-(2-amino-3-cyano-spiro[5,6-dihydrocyclopenta[b]thiophene-4,3′-azetidine]-1′-yl)-5-cyano-2-[[1-[(dimethylamino)methyl]-2,2-difluoro-cyclopropyl]methoxy]pyrimidin-4-yl]-3-chloro-N,N-dimethyl-4,6,7,8-tetrahydropyrazolo[1,5-a][1,4]diazepine-2-carboxamide], in that order: < 10 nM and 1 to 10 nM.
For `C[C@H](Oc1nc(N2C[C@H]3CC[C@@H](C2)N3)c(C#N)c(N2CC3(CCc4sc(N)c(C#N)c43)C2)n1)[C@@H]1CCCN1C` [Compound 88, 2-amino-1′-[5-cyano-6-[(1R,5S)-3,8-diazabicyclo[3.2.1]octan-3-yl]-2-[(1S)-1-[(2S)-1-methylpyrrolidin-2-yl]ethoxy]pyrimidin-4-yl]spiro[5,6-dihydrocyclopenta[b]thiophene-4,3′-azetidine]-3-carbonitrile], in that order: 10 to 100 nM and 1000 to 10000 nM.
Take `N#Cc1c(N2C[C@H]3CC[C@@H](C2)N3)nc(OCC2(CN3C[C@@H]4C[C@H]3CO4)CC2)nc1N1CC2(CCc3sc(N)c(C#N)c32)C1` [Compound 89, 2-amino-1′-[5-cyano-6-[(1R,5S)-3,8-diazabicyclo[3.2.1]octan-3-yl]-2-[[1-[[(1S,4S)-2-oxa-5-azabicyclo[2.2.1]heptan-5-yl]methyl]cyclopropyl]methoxy]pyrimidin-4-yl]spiro[5,6-dihydrocyclopenta[b]thiophene-4,3′-azetidine]-3-carbonitrile]: the IC50 was < 10 nM in assay [1] and 10 to 100 nM in assay [2].
`CN(C)C(=O)c1nn2c(c1Cl)CN(c1nc(OC[C@@]34CCCN3C[C@H](F)C4)nc(N3CC4(CCc5sc(N)c(C#N)c54)C3)c1C#N)CC(F)(F)C2` [Compound 91, 5-[6-(2-amino-3-cyano-spiro[5,6-dihydrocyclopenta[b]thiophene-4,3′-azetidine]-1′-yl)-5-cyano-2-[[(2R,8S)-2-fluoro-1,2,3,5,6,7-hexahydropyrrolizin-8-yl]methoxy]pyrimidin-4-yl]-3-chloro-7,7-difluoro-N,N-dimethyl-6,8-dihydro-4H-pyrazolo[1,5-a][1,4]diazepine-2-carboxamide]: the IC50 in assay [1] was < 10 nM; in assay [2], 10 to 100 nM.
The like results for `N#Cc1c(N2C[C@H]3CC[C@@H](C2)N3)nc(OC[C@@H]2CCN2CC(F)(F)F)nc1N1CC2(CCc3sc(N)c(C#N)c32)C1` [Compound 92, 2-amino-1′-[5-cyano-6-[(1R,5S)-3,8-diazabicyclo[3.2.1]octan-3-yl]-2-[[(2S)-1-(2,2,2-trifluoroethyl)azetidin-2-yl]methoxy]pyrimidin-4-yl]spiro[5,6-dihydrocyclopenta[b]thiophene-4,3′-azetidine]-3-carbonitrile] were, in that order, 10 to 100 nM and 1000 to 10000 nM.
`C=C1CN2CCCC2(COc2nc(N3CCCn4nc(C(=O)N(C)C)c(Cl)c4C3)c(C#N)c(N3CC4(CCc5sc(N)c(C#N)c54)C3)n2)C1` (centres unmarked) [Compound 93, 5-[6-(2-amino-3-cyano-spiro[5,6-dihydrocyclopenta[b]thiophene-4,3′-azetidine]-1′-yl)-5-cyano-2-[(6-methylene-2,3,5,7-tetrahydro-1H-pyrrolizin-8-yl)methoxy]pyrimidin-4-yl]-3-chloro-N,N-dimethyl-4,6,7,8-tetrahydropyrazolo[1,5-a][1,4]diazepine-2-carboxamide]: the IC50 is < 10 nM in assay [1] and 1 to 10 nM in assay [2].
With `C=C1CN2CCCC2(COc2nc(N3C[C@H]4CC[C@@H](C3)N4)c(C#N)c(N3CC4(CCc5sc(N)c(C#N)c54)C3)n2)C1` (stereo partly drawn) [Compound 94, 2-amino-1′-[5-cyano-2-[(6-methylene-2,3,5,7-tetrahydro-1H-pyrrolizin-8-yl)methoxy]-6-[(1R,5S)-3,8-diazabicyclo[3.2.1]octan-3-yl]pyrimidin-4-yl]spiro[5,6-dihydrocyclopenta[b]thiophene-4,3′-azetidine]-3-carbonitrile], the 50% inhibitory concentration (IC50) was < 10 nM in assay [1] and 1 to 10 nM in assay [2].
For `CN(C)CC1(COc2nc(N3CCCn4nc(C(=O)N(C)C)c(Cl)c4C3)c(C#N)c(N3CC4(CCCc5sc(N)c(C#N)c54)C3)n2)CC1(F)F` (centres unmarked) [Compound 96, 5-[6-(2-amino-3-cyano-spiro[6,7-dihydro-5H-benzothiophene-4,3′-azetidine]-1′-yl)-5-cyano-2-[[1-[(dimethylamino)methyl]-2,2-difluoro-cyclopropyl]methoxy]pyrimidin-4-yl]-3-chloro-N,N-dimethyl-4,6,7,8-tetrahydropyrazolo[1,5-a][1,4]diazepine-2-carboxamide], in that order: < 10 nM and 10 to 100 nM.
For `Cn1nccc1COc1nc(N2C[C@H]3CC[C@@H](C2)N3)c(C#N)c(N2CC3(CCc4sc(N)c(C#N)c43)C2)n1` [Compound 97, 2-amino-1′-[5-cyano-2-[(2-methylpyrazol-3-yl)methoxy]-6-[(1R,5S)-3,8-diazabicyclo[3.2.1]octan-3-yl]pyrimidin-4-yl]spiro[5,6-dihydrocyclopenta[b]thiophene-4,3′-azetidine]-3-carbonitrile], in that order: < 10 nM and 100 to 1000 nM.
In the case of `N#Cc1c(N2C[C@H]3CC[C@@H](C2)N3)nc(OCC2(c3ccn[nH]3)CC2)nc1N1CC2(CCc3sc(N)c(C#N)c32)C1` [Compound 98, 2-amino-1′-[5-cyano-6-[(1R,5S)-3,8-diazabicyclo[3.2.1]octan-3-yl]-2-[[1-(1H-pyrazol-5-yl)cyclopropyl]methoxy]pyrimidin-4-yl]spiro[5,6-dihydrocyclopenta[b]thiophene-4,3′-azetidine]-3-carbonitrile], the half-inhibitory concentration (IC50) in assay [1] was < 10 nM; in assay [2] it was 1000 to 10000 nM.
`N#Cc1c(N2C[C@H]3CC[C@@H](C2)N3)nc(OC[C@@]23CCCN2C[C@H](F)C3)nc1N1CC2(C1)c1c(sc(N)c1C#N)CC1CC12` (stereo partly drawn) [Compound 99, 2-amino-1′-[5-cyano-6-[(1R,5S)-3,8-diazabicyclo[3.2.1]octan-3-yl]-2-[[(2R,8S)-2-fluoro-1,2,3,5,6,7-hexahydropyrrolizin-8-yl]methoxy]pyrimidin-4-yl]spiro[4a,5,5a,6-tetrahydrocyclopropa[f]benzothiophene-4,3′-azetidine]-3-carbonitrile]: the IC50 is < 10 nM in assay [1] and 1 to 10 nM in assay [2].
